For 88 compounds, XC50 results are on record in ChEMBL document CHEMBL1157539, “Thousands of chemical starting points for antimalarial lead identification” (Nature, 2010).

The subject of the experiment is Plasmodium falciparum. Briefly: GSK_TCMDC: Inhibition of Plasmodium falciparum 3D7 in whole erythrocytes, using parasite LDH activity as an index of growth. It counts as functional, organism-based. The settings on record: Plasmodium falciparum, 3D7.
For the compound `CCN(CC)CCN(Cc1ccc(-c2ccc(C(F)(F)F)cc2)cc1)C(=O)Cn1c(CCc2ccc(F)c(F)c2F)nc(=O)c2ccccc21`, the XC50 stood at 795 nM.

Regarding `CCNC(C)(C)CN(Cc1ccc(-c2ccc(C(F)(F)F)cc2)cc1)C(=O)Cn1c(CCc2cccc(F)c2F)nc(=O)c2ccccc21`, the XC50 amounted to 813 nM.

With `N=C(N)c1ccc(-c2cc(-c3cccc(C(=N)N)c3)on2)cc1`, the XC50 is 13.8 nM.

For the compound `CCC(C)c1ccc(O)c(NC(=O)c2cncc(Br)c2)c1` (stereo not drawn), the XC50 is 804 nM.

On to `CCOc1ccc(N(CC)S(=O)(=O)c2cc(Br)cc3c2N(C(=O)C2CC2)CC3)cc1`, for which the XC50 stood at 134 nM.

For `Cc1cc(-c2ccc(CNCc3ccsc3)cc2)ccc1S(=O)(=O)NCCN1CCCC1`, the XC50 stood at 725 nM.

In turn, `Cc1ccc(NC(=O)Nc2ccc(Cl)cc2)cc1-c1ccc(C(=O)Nc2ccncc2)cc1` returned an XC50 of 534 nM.

`Cc1ccc(NC(=O)c2ccc3ncccc3c2)cc1OC1CCN(Cc2ccc(F)cc2)C1` (stereo not drawn): the XC50 came to 1360 nM.

As to `CN1CCN(CCNc2c3ccccc3nc3c2ccc2ccccc23)CC1`, the XC50 is 606 nM.

For the compound `CC(C)NCc1ccc(-c2cccc(-c3nc4cc(F)ccc4[nH]3)c2)cc1`, the XC50 is 405 nM.

Consider `CCOc1ccc(NC(C)=O)c(O)c1`, for which the XC50 turned out to be 843 nM.

Turning to `Cc1ccc2c(-c3ccc([N+](=O)[O-])o3)cc(C)nc2c1`, the XC50 worked out at 43.7 nM.

For the compound `CC1CN(Cc2csc(Nc3ccccc3)n2)CC(C)O1` (stereo not drawn), the XC50 worked out at 1020 nM.

In turn, `Cc1ccc2[nH]c(C)c(Br)c(=O)c2c1` returned an XC50 of 812 nM.

The compound `CCOc1c(C)cc(C(F)(F)F)cc1CNCCCNc1cc(=O)c2ccccc2[nH]1` came in with an XC50 of 161 nM.

Turning to `CC(C)CCN1CCCN(Cc2cccc(NC(=O)c3ccc(Cl)c(Cl)c3)c2)CC1`, the XC50 was 1020 nM.

`CC(Cc1ccc(SC(C)(C)C)cc1)NCC(O)c1cccc(Cl)c1` (stereo not drawn): the XC50 was determined as 317 nM.

For the compound `O=[N+]([O-])c1ccc2c(-c3ccccc3)c(-c3ccccc3)n(O)c2c1`, the XC50 was 989 nM.

The compound `Oc1ccc2[nH]c(-c3ccc(F)cc3F)nc2c1CN1CCC(O)(c2ccccc2)CC1` came in with an XC50 of 839 nM.

With `COc1ccccc1N1CCN(CCCCNC(=O)c2ccc(NC(=O)c3ccc4ccccc4c3)cc2)CC1`, the XC50 stood at 800 nM.

`O=C(/C=C/c1ccc(Cl)c(Cl)c1)NCCCCCN1CCC(NC(=O)c2ccc3ccccc3c2)CC1` had an XC50 of 1020 nM.

`CCc1cc2c(Sc3nc4ccccc4[nH]3)ncnc2s1` gave an XC50 of 823 nM.

Take `N#Cc1ccc2[nH]c(-c3ccccc3)nc2c1`: the XC50 was determined as 698 nM.

Turning to `O=C(Cc1ccc(NC(=O)c2ccc(O)c(-c3cccc([N+](=O)[O-])c3)c2)cc1)NCCN1CCCCC1`, the XC50 turned out to be 895 nM.

Compound `COc1ccc(NC(=O)[C@H](Cc2ccccc2)Nc2cc(C)nc(NCCc3ccccn3)n2)cc1` had an XC50 of 834 nM.

Compound `COc1cc(COc2c(C)nc(N)nc2N)cc(OC)c1OC` registered an XC50 of 332 nM.

For the compound `COc1cc(CCON2C(N)=NC(N)=NC2(C)C)cc(OC)c1OC`, the XC50 stood at 49.3 nM.

Take `Cc1ccc2nc(N/C(N)=N/C(=O)NC3CCCCC3)nc(C)c2c1`: the XC50 was found to be 624 nM.

Compound `CNC(=O)NC1=NC(C)(C)N(OCCCOc2cc(Cl)c(Cl)cc2Cl)C(N)=N1` returned an XC50 of 935 nM.

The compound `Cc1cc(C(F)(F)F)n2nc(C(=O)N(Cc3cncn3Cc3ccccc3F)CC3CC3)cc2n1` registered an XC50 of 956 nM.

With `COc1ccccc1Nc1nc(C)cc(NCc2ccc(-n3ccnc3)cc2)n1`, the XC50 was found to be 1050 nM.

Regarding `CCN(c1ccccc1)S(=O)(=O)c1ccc(NC(=O)c2cc(-c3cc(C)ccc3O)n[nH]2)cc1`, the XC50 turned out to be 767 nM.

Compound `NC1CCCN(Cc2cccc(-c3ccc(-c4nc5ccccc5[nH]4)cc3)c2)C1` (stereo not drawn) had an XC50 of 722 nM.

The compound `CC(C)(C)c1ccc2oc(=O)n(C3CCN(C(=O)c4ccc([N+](=O)[O-])o4)CC3)c2c1` came in with an XC50 of 816 nM.

Consider `FC(F)(F)c1ccc2[nH]c(-c3ccc(-c4ccc(CNCc5ccccc5)cc4)cc3)nc2c1`, for which the XC50 worked out at 143 nM.

`Cc1[nH]c(-c2ccc(F)cc2)cc1C(=O)NC1CCN(Cc2ccccc2)CC1`: the XC50 is 1130 nM.

In turn, `CCCn1c(Sc2ccc(C#N)c([N+](=O)[O-])c2)nnc1-c1cc(OC)cc(OC)c1` came in with an XC50 of 718 nM.

For `CC(C)NCc1ccc(OCc2cccc(COc3ccc(CNC(C)C)cc3I)c2)c(I)c1`, the XC50 was determined as 92 nM.

As for `COc1cc2nc(N3CCC(C(N)=O)CC3)nc(NCc3ccccc3)c2cc1OC`, the XC50 was found to be 887 nM.

For the compound `COc1cc2nc(Nc3ccc(C)cc3)nc(Nc3ccc(C)cc3)c2cc1OC`, the XC50 turned out to be 139 nM.

`CCc1ccc(CN2CCC(CN(c3ccc(N4CCOCC4)c(F)c3)S(=O)(=O)c3ccc(C(C)(C)CC)cc3)CC2)cc1`: the XC50 worked out at 706 nM.

`CCCCCCNc1cc(C)nc(NC(=N)Nc2cccc(C(F)(F)F)c2)n1` yielded an XC50 of 739 nM.

Regarding `CC(=O)Nc1nc(C(=O)Nc2ccc(-c3ccc(-c4nc5cccc(C)c5[nH]4)cc3)cc2)cs1`, the XC50 is 182 nM.

For the compound `N=C(N)NN=Cc1c2ccc(Cl)cc2c(Cl)c2ccc(Cl)cc12`, the XC50 was found to be 958 nM.

Take `COc1ccc2nc(C)cc(NCc3cccc4ccccc34)c2c1`: the XC50 came to 217 nM.

Turning to `C[C@H](Cc1ccc(OCCCCCCOc2ccccc2)cc1)NC[C@H](O)c1cccc(Cl)c1`, the XC50 came out at 70.4 nM.

`CC1CN(Cc2cccc(C#N)c2)CCN1c1ccc(NC(=O)c2cccs2)cc1` (stereo not drawn): the XC50 was determined as 675 nM.

For `Cc1cccc2nc(-c3ccc(-c4ccc(CN5CCN(c6ccc(C#N)cn6)CC5)cc4)s3)[nH]c12`, the XC50 is 1130 nM.

As to `Cn1nc(-c2ccc(S(=O)(=O)N3CCC(CN4CCC(c5c[nH]c6ccccc56)CC4)CC3)s2)cc1C(F)(F)F`, the XC50 worked out at 1090 nM.

Turning to `CCC(=O)Nc1cc(=O)[nH]c2nc(-c3ccc(Cl)cc3)nn12`, the XC50 is 570 nM.

`O=C(Nc1ccc(Oc2ccc(OC(F)(F)F)cc2)cc1)c1ccco1` showed an XC50 of 1130 nM.

Regarding `COc1cccc(C(=O)Nc2nc3c(s2)CCN(Cc2ccccc2N2CCNCC2)CC3)c1`, the XC50 is 888 nM.

In the case of `O=C(Nc1ccc2nccc(N3CCN4CCC[C@H]4C3)c2c1)c1ccc(Cl)c(Cl)c1`, the XC50 came to 340 nM.

Compound `Cc1cc(-c2ccc(NC(=O)N3CCc4cc(Cl)c(N5CCN(C)CC5)cc43)cc2)ccc1C#N` displayed an XC50 of 589 nM.

For `N#CC1(CCCNCCc2ccc(O)cc2)CCCc2c(O)cccc21` (stereo not drawn), the XC50 was 763 nM.

`NC1CCN(Cc2ccc(-c3ccc(-c4nc5cc(F)ccc5[nH]4)cc3)cc2)C1` (stereo not drawn) came in with an XC50 of 184 nM.

In the case of `CCCC(CNCc1cccc(OCC)c1)CNc1cc(=O)c2ccccc2[nH]1` (stereo not drawn), the XC50 came out at 855 nM.

Compound `O=C(/C=C/c1ccc(Cl)c(Cl)c1)NCCCCCN1CCC(NC(=O)Nc2cc(Cl)cc(Cl)c2)CC1` displayed an XC50 of 722 nM.

For `Nc1cccc(CNCc2cccc(-c3cccc(-c4nc5cc(C(F)(F)F)ccc5[nH]4)c3)c2)c1`, the XC50 was 510 nM.

`CC(C)(C)CC(C)(C)c1ccc(O)c(C(=O)Nc2cccc([N+](=O)[O-])c2)c1` displayed an XC50 of 589 nM.

`CCN(CC)CCNc1ccnc2[nH]c3ccc(Cl)cc3c12` displayed an XC50 of 245 nM.

As to `COCCNC(=O)c1ccc(OC2CCN(CC(C)=Cc3ccccc3)CC2)c(Cl)c1`, the XC50 stood at 652 nM.

As to `O=C(NCCCCCN1CCC(c2c[nH]c3ccccc23)CC1)Nc1cccc(Cl)c1`, the XC50 is 1020 nM.

Take `Cc1ccc(-c2ccc(Cl)cc2Oc2cnc(N)nc2N)o1`: the XC50 turned out to be 1080 nM.

On to `CCc1cc(OC)ccc1C1CCN(CCCCNC(=O)c2ccc(NC(=O)c3ccc(Cl)cc3)cc2)CC1`, for which the XC50 amounted to 1070 nM.

On to `CCOC(=O)c1[nH]c2cc(Cl)cc(Cl)c2c1/C=C/C(=O)Nc1ccc(-c2cnc(NC(C)=O)[nH]2)cc1`, for which the XC50 worked out at 1020 nM.

Turning to `CCNc1cc(C(=O)N[C@@H](Cc2ccccc2)[C@H](O)CNCC(C)C)cc(N2CCCC2=O)c1`, the XC50 came to 485 nM.

With `CCc1c[nH]c2c(N3CCCCC3=O)cc(C(=O)N[C@@H](Cc3ccccc3)[C@H](O)CNCc3cccc(OC)c3)cc12`, the XC50 stood at 169 nM.

For the compound `CC[C@@]1(O)C(=O)OCc2c1cc1n(c2=O)Cc2c-1nc1cc3c(cc1c2CN1CCOCC1)OCO3`, the XC50 was 965 nM.

`COc1ccc(-n2nc(C(=O)NCCC3=CCCCC3)c3ccccc3c2=O)cc1`: the XC50 is 682 nM.

Take `CN(C)CCC(O)C=C(c1ccc(Cl)cc1)c1ccc(Cl)cc1` (stereo not drawn): the XC50 worked out at 948 nM.

As for `CCC[C@@H]([C@@H](CC1CCCCC1)C(=O)N[C@H](C(=O)Nc1nccs1)C(C)(C)SCCNC(=O)OCC)N(O)C=O`, the XC50 is 83.4 nM.

`Cc1cc(=NN=Cc2ccc(F)cc2)c2ccc(F)cc2[nH]1` returned an XC50 of 950 nM.

Compound `CCN(CC)CCN(Cc1ccc(-c2ccc(C(F)(F)F)cc2)cc1)C(=O)Cn1nc(-c2ccc(C(F)(F)F)cc2)ccc1=O` came in with an XC50 of 797 nM.

As for `Cc1cc(N[C@@H](CC(C)C)C(=O)Nc2ccccc2)nc(NCCc2ccccc2)n1`, the XC50 is 888 nM.

`CCCCc1ccc(-c2c(N)nc(N)nc2CC)cc1`: the XC50 was determined as 954 nM.

`CC(C)Sc1nc2c(c(=O)n1Cc1ccco1)C1(CCCC1)Cc1ccccc1-2` showed an XC50 of 1630 nM.

`CCC[C@@H]([C@@H](CC1CCCCC1)C(=O)N[C@@H](CCOC(=O)NCC)C(=O)Nc1nccs1)N(O)C=O` showed an XC50 of 81.8 nM.

The compound `Cc1ccc2nc(C)n(C3CCN(C(=O)Cc4ccccc4C)CC3)c2c1` came in with an XC50 of 243 nM.

Take `Cc1ccc2nc(C)cc(NC(=O)Nc3ccc(N(C)C)cc3)c2c1`: the XC50 was found to be 541 nM.

`Cc1ccc2c(=NN=Cc3cccc(F)c3)cc(C)[nH]c2c1` had an XC50 of 857 nM.

`CN(CCN)Cc1ccc(-c2ccc(-c3nc4cc(C(F)(F)F)ccc4[nH]3)s2)cc1` had an XC50 of 607 nM.

For the compound `COc1ccccc1C1CC(c2ccccc2)=NN1C(=O)c1ccco1` (stereo not drawn), the XC50 came to 397 nM.

Turning to `O=C(Nc1ccc(OC2CCN(Cc3ccco3)C2)c(Cl)c1)c1ccc2ncccc2c1` (stereo not drawn), the XC50 was found to be 1080 nM.

Compound `Cc1c(S(=O)(=O)Nc2ccc3nccc(N4CC(C)NC(C)C4)c3c2)sc2ccc(Cl)cc12` (stereo not drawn) came in with an XC50 of 1020 nM.

`CC[C@H]1CN2CC[C@H]1C[C@H]2[C@@H](O)c1cc(OCCCN(C)C)nc2ccc(OC)cc12` came in with an XC50 of 132 nM.

Turning to `CC(CON1C(N)=NC(N)=NC1(C)C)c1ccc(Cl)cc1Cl` (stereo not drawn), the XC50 is 3.2 nM.

With `Cc1cccc(NC(=O)c2cnc(N3CCN(c4ccncc4)CC3)c(Cl)c2)c1`, the XC50 is 678 nM.
